According to ChEMBL document CHEMBL5584353, “Design, Synthesis, and Biological Evaluation of Potent EZH2/LSD1 Dual Inhibitors for Prostate Cancer” (J Med Chem, 2024):
Calls of active or inactive are those of the source. The rule behind the calls is not given here.

Tests used:
[1] = system: CWR22R; test: Antitumor activity against human 22Rv1 cells xenografted in BALB/c mouse assessed as reduction in Ki67 expression at 80 mg/kg,ip administrated daily for 31 days by immunofluorescence analysis; type: functional, organism-based; settings: time 31.0 day
[2] = target: T1, Amine oxidase [flavin-containing] A (Homo sapiens, UniProt P21397); test: Inhibition of MAO-A (unknown origin)
T1 sequence (P21397 whole entry): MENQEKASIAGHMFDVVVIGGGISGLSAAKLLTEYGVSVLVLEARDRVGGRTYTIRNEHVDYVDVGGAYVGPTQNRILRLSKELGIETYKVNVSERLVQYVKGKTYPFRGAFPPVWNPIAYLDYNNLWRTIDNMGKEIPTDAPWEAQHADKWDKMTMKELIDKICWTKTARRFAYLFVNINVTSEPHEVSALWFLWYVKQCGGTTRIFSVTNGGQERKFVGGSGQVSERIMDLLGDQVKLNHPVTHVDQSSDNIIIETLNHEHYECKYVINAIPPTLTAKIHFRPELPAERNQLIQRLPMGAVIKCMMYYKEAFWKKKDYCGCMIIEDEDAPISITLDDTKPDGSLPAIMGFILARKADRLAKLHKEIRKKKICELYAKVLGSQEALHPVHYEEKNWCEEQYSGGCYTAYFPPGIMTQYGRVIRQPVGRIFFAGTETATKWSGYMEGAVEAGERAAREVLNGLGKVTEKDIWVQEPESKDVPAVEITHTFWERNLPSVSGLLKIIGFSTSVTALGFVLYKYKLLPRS

[3] = system: CWR22R; test: Induction of cell cycle arrest in human 22Rv1 cells assessed as accumulation of cells at G0/G1 phase incubated for 72 hrs by propidium iodide/RNase staining based flow cytometric analysis; type: functional
[4] = system: SUD4; test: Antiproliferative activity against human SU-DHL-4 cells assessed as inhibition of cell growth incubated for 6 to 7 days by MTS assay; type: functional, cell-based; settings: time 6-7 day
[5] = Half life in BALB/c mouse at 50 mg/kg,ip measured upto 24 hrs by HPLC-MS/MS analysis; type: ADME, organism-based; settings: in vivo
[6] = AUC (0 to infinity) in BALB/c mouse at 50 mg/kg,iv measured upto 24 hrs by HPLC-MS/MS analysis; type: ADME, organism-based; settings: in vivo
[7] = system: LNCaP; test: Induction of cell cycle arrest in human LNCaP cells assessed as accumulation of cells at G0/G1 phase incubated for 72 hrs by propidium iodide/RNase staining based flow cytometric analysis; type: functional
[8] = system: CWR22R; settings: Homo sapiens, dose 80.0 mg/kg, route ip, time 31.0 day
[9] = system: MDA-MB-231; test: Antiproliferative activity against human MDA-MB-231 cells assessed as inhibition of cell growth incubated for 6 to 7 days by MTS assay; type: functional, cell-based; settings: time 6-7 day
[10] = system: CWR22R; settings: Homo sapiens, dose 80.0 mg/kg, route ip, time 31.0 day; remark: listed apart in the source
[11] = Clearance in BALB/c mouse at 50 mg/kg,iv measured upto 24 hrs by HPLC-MS/MS analysis; type: ADME, organism-based; settings: in vivo
[12] = system: CWR22R; settings: Homo sapiens, dose 80.0 mg/kg, route ip, time 31.0 day; remark: listed apart in the source
[13] = system: CWR22R; test: Growth inhibition of human 22Rv1 cells incubated for 6 to 7 days by MTS assay; type: functional; settings: time 6-7 day
[14] = system: A549; test: Antiproliferative activity against human A549 cells assessed as inhibition of cell growth incubated for 6 to 7 days by MTS assay; type: functional, cell-based; settings: time 6-7 day
[15] = target: T2, Lysine-specific histone demethylase 1A (Homo sapiens, UniProt O60341); test: Inhibition of LSD1 in human PC-3 cells assessed as upregulation of H3K9me2 expression at 1 to 5 uM incubated for 5 days by Western blotting analysis; type: cell-based; settings: dose 1-5 µM, time 5.0 day
[16] = system: LNCaP; test: Antiproliferative activity against human LNCaP cells assessed as inhibition of cell growth incubated for 6 to 7 days by MTS assay; type: functional, cell-based; settings: time 6-7 day
[17] = target: T2, Lysine-specific histone demethylase 1A; test: Inhibition of LSD1 in human 22Rv1 cells assessed as upregulation of H3K9me2 expression at 1 to 5 uM incubated for 5 days by Western blotting analysis; type: cell-based; settings: dose 1-5 µM, time 5.0 day
[18] = target: T2, Lysine-specific histone demethylase 1A; test: Inhibition of LSD1 in human LNCaP cells assessed as upregulation of H3K9me2 expression at 1 to 5 uM incubated for 5 days by Western blotting analysis; type: cell-based; settings: dose 1-5 µM, time 5.0 day
[19] = system: U-937; test: Antiproliferative activity against human U-937 cells assessed as inhibition of cell growth incubated for 6 to 7 days by MTS assay; type: functional, cell-based; settings: time 6-7 day
[20] = system: CWR22R; test: Synergistic antiproliferative activity against human 22Rv1 cells assessed as inhibition of cell growth at 6.25 to 100 uM incubated for 6 to 7 days in presence of enzalutamide by MTS assay; type: functional, cell-based; settings: dose 6.25-100 µM, time 6-7 day
[21] = AUC (0 to infinity) in BALB/c mouse at 50 mg/kg,po measured upto 24 hrs by HPLC-MS/MS analysis; type: ADME, organism-based; settings: in vivo
[22] = target: T2, Lysine-specific histone demethylase 1A; test: Binding affinity to recombinant human LSD1 assessed as increase in thermal stability at 5 uM at 38 to 58 degreeC incubated for 48 hrs by cellular thermal shift assay
[23] = Tmax in BALB/c mouse at 50 mg/kg,po measured upto 24 hrs by HPLC-MS/MS analysis; type: ADME, organism-based; settings: in vivo
[24] = system: CWR22R; test: Antiproliferative activity against human 22Rv1 cells assessed as inhibition of cell growth incubated for 6 to 7 days by MTS assay; type: functional, cell-based; settings: time 6-7 day
[25] = Toxicity in BALB/c mouse xenografted with human 22Rv1 cells assessed as kidney morphological change at 80 mg/kg,ip administrated daily for 31 days; type: organism-based, CWR22R; settings: in vivo, 744 h, time 31 day
[26] = system: CWR22R; test: Induction of apoptosis in human 22Rv1 cells assessed as upregulation of p21 expression incubated for 48 hr by Western blotting analysis; type: functional, cell-based
[27] = Half life in BALB/c mouse at 50 mg/kg,iv measured upto 24 hrs by HPLC-MS/MS analysis; type: ADME, organism-based; settings: in vivo
[28] = system: CWR22R; test: Induction of apoptosis in human 22Rv1 cells at 10 uM incubated for 5 days by Annexin V-FITC/PI staining based flow cytometric analysis (reference value: 8.97 %); type: functional; settings: time 5 day
[29] = Toxicity in BALB/c mouse xenografted with human 22Rv1 cells assessed as lung morphological change at 80 mg/kg,ip administrated daily for 31 days; type: organism-based, CWR22R; settings: in vivo, 744 h, time 31 day
[30] = system: LNCaP C4-2B; test: Antiproliferative activity against human LNCaP C4-2B cells assessed as inhibition of cell growth incubated for 6 to 7 days by MTS assay; type: functional, cell-based; settings: time 6-7 day
[31] = system: LNCaP; test: Antimigratory activity in human LNCaP cells assessed as downregulation of N-cadherin expression at 3 to 10 uM incubated for 48 hrs by Western blotting analysis; type: functional, cell-based; settings: dose 3-10 µM
[32] = Half life in BALB/c mouse at 50 mg/kg,po measured upto 24 hrs by HPLC-MS/MS analysis; type: ADME, organism-based; settings: in vivo
[33] = Toxicity in BALB/c mouse xenografted with human 22Rv1 cells assessed as heart morphological change at 80 mg/kg,ip administrated daily for 31 days; type: organism-based, CWR22R; settings: in vivo, 744 h, time 31 day
[34] = system: SU-DHL-2; test: Antiproliferative activity against human SU-DHL-2 cells assessed as inhibition of cell growth incubated for 6 to 7 days by MTS assay; type: functional, cell-based; settings: time 6-7 day
[35] = system: BEAS-2B; test: Cytotoxicity against human BEAS-2B cells incubated for 6 to 7 days by MTS assay; type: toxicity, cell-based; settings: time 6-7 day

CCN(c1cc(-c2ccc([C@@H]3C[C@H]3N(CC3CCOCC3)C(=O)OC(C)(C)C)cc2)cc(C(=O)NCc2c(C)cc(C)[nH]c2=O)c1C)C1CCOCC1 (racemic)
Activity [1]: Active | IC50 [2]: 1540 nM | Activity [3]: Dose-Dependent Effect | Activity [4]: Active | half-life [5]: 3.5 h | AUC(0-inf) [6]: 126000 ng·h/mL | Activity [7]: Dose-Dependent Effect | inhibition [8]: Active | Activity [9]: Active | inhibition [10]: Active | clearance [11]: 6.67 mL/min/kg | inhibition [12]: Active | GI50 [13]: 3960 nM | Activity [14]: Active | inhibition [15]: Active | Activity [16]: Active | inhibition [17]: Active | inhibition [18]: Active | Activity [19]: Active | Activity [20]: Active | AUC(0-inf) [21]: 41400 ng·h/mL | Activity [22]: Active | Tmax [23]: 1 h | Activity [24]: Active | Activity [25]: Non-Toxic | Activity [26]: Dose-Dependent Effect | half-life [27]: 2.5 h | Activity [28]: 50.06% | Activity [29]: Non-Toxic | Activity [30]: Active | Activity [31]: Active | half-life [32]: 3.5 h | Activity [33]: Non-Toxic | Activity [34]: Active | Activity [35]: Non-Toxic
